{
  "source": "patent US9139542B2",
  "about": "“Crystalline form of a substituted thiazolylacetic acid triethylamine salt” (THERAVANCE BIOPHARMA ANTIBIOTICS IP, LLC, priority 2013, dated 2015)",
  "key": {"[1]": {"experiment": "Thermogravimetric analysis (TGA)", "type": "physicochemical", "protocol": "Thermogravimetric analysis (TGA) was performed using a TA Instruments Model Q-500 module equipped with high resolution capability. Data were collected and analyzed using TA Instruments Thermal Solutions software. A sample of crystalline (2Z)-2-(2-amino-5-chlorothiazol-4-yl)-2-(3-N-tert -butoxycarbonylaminopropoxyimino)acetic acid triethylamine salt (about 10 mg) was placed onto a platinum pan and scanned with a high resolution-heating rate from ambient temperature to 300° C. The balance and furnace chambers were purged with nitrogen flows during use."}, "[2]": {"experiment": "Dynamic moisture sorption (DMS) assessment", "type": "physicochemical", "protocol": "A dynamic moisture sorption (DMS) assessment (also known as a moisture sorption-desorption profile) was performed using a VTI atmospheric microbalance, SGA-100 system (VTI Corp., Hialeah, Fla. 33016). A sample of crystalline (2Z)-2-(2-amino-5-chlorothiazol-4-yl)-2-(3-N-tert-butoxycarbonylaminopropoxyimino)acetic acid triethylamine salt (about 10 mg) was used and the humidity was set at the ambient value at the start of the analysis. A typical DMS analysis consisted of three scans: ambient to 5% relative humidity (RH), 5% RH to 90% RH, 90% RH to 5% RH at a scan rate of 5% RH/step. The mass was measured every two minutes and the RH was changed to the next value (+/−5% RH) when the mass of the sample was stable to within 0.01% for 5 consecutive points."}},
  "data": [
    {"smiles": "CC(C)(C)OC(=O)NCCCO/N=C(\\C(=O)O)c1nc(N)sc1Cl.CCN(CC)CC", "note": "[crystalline form, (2Z)-2-(2-amino-5-chlorothiazol-4-yl)-2-(3-N-tert-butoxycarbonylaminopropoxyimino)acetic acid triethylamine salt]", "values": [
      {"measurement": "weight loss (TGA)", "setting": "[1]; above 120° C., likely post-melting evaporation of triethylamine and decomposition", "result": "about 50%"},
      {"measurement": "weight loss (TGA)", "setting": "[1]; temperature range of from 20° C. to 120° C.", "result": "less than 0.25%"},
      {"measurement": "hygroscopicity (reversible moisture sorption/desorption profile)", "setting": "[2]; 5% RH to 90% RH to 5% RH", "result": "acceptable hygroscopicity"},
      {"measurement": "weight gain (moisture sorption)", "setting": "[2]; humidity range of 5% RH to 60% RH", "result": "insignificant weight gain"},
      {"measurement": "weight gain (moisture sorption)", "setting": "[2]; humidity range of 60% RH to 90% RH", "result": "about 5.56%"},
      {"measurement": "moisture loss on initial drying (DMS)", "setting": "[2]; initial drying, ambient to 5% RH", "result": 0.56, "unit": "% by weight"}
    ]}
  ]
}
